Residues, ends and D or L forms follow the SMILES beside them. *: point of attachment. Cbz = O=C(OCc1ccccc1)*
Tests used:
RT4 cells = experiment: Chk1 inhibitor synthetic lethality with beta-lactam antibiotics, RT4 cells; assay type: cell-based, human; conditions: for synthetic lethality with Chk1i: RT4 cells, Chk1i rabusertib
Description: Additional experiments were performed, as follows. MB49 were plated at 2,000 cells/well in 96 well flat bottom plates and treated with PD-L1 depleting drugs, olaparib (2.5 μM), and combination for 96 hours. RT4 were plated at 2,000 cells/well in 96 well flat bottom plates and treated with cefepime, rabusertib (1 μM), praxasertib, or combination for 96 hours. ID8agg, 4T1, and B16 cells were plated on fibronectin at 500 cells/well and treated with cefepime, rabusertib, or combination for 96 hours. Normalized treatment combination to DDR inhibitor alone, and PD-L1 depleting drug to vehicle alone (DMSO) were evaluated.

[1] = test system: PD-L1, Chk2, gH2AX in RT4 cells; experiment: Cefepime depletion of PD-L1 and Chk2, DNA damage (gH2AX); assay type: cell-based, human
Description: Experiments were performed to see if beta-lactam antibiotics may deplete PD-L1 in cancer cells. RT4 cells were incubated at 80 μM cefepime.
Next experiments were performed to see if beta-lacatam antibiotics can deplete Chk2 in vitro. RT4 cells were treated with 1 μM rabusertib (Chk1i), 75 μM cefepime (D7), or combination. Protein lysates were collected at 24, 48, 72, and 96 hours.

PD-L1 = experiment: Tumor cell PD-L1 depletion by drugs (flow cytometry, immunoblot); assay type: cell-based, human and mouse; conditions: for expression of PD-L1 in cancer cells: summary statement
Description: High throughput Screening: B16 PD-L1 RFP cells were treated with 2.5 and 10 μM compounds from the Prestwick and LOPAC Libraries for 48 hours using the Agilent Bravo liquid pipetting platform. Then, cells were washed with PBS, and fixed with 4% paraformaldehyde (Electron Microscopy Sciences, Hatsfield, PA, Cat 15714S) and labeled with 2 μg/ml DAPI, (Molecular Probes, Cat D1306) and 1 μg/ml Cell Mask-Blue (Invitrogen, Cat. H32720). Plates were then imaged using the Operetta High Content Imaging System, Perkin Elmer, Waltham (DAPI and Cell Mask Blue, Ex 360-400, Em 410-480), and the RFP channels (Ex 520-550, Em 560-630) channels. Agents effecting ≥2-fold PD-L1 reduction in the RFP reporter without loss of ≥20% cell viability were candidate PD-L1 depletion agents.
Flow cytometry: Mice were sacrificed by cervical dislocation after induction of deep isoflurane anesthesia. ID8agg tumors were collected and cells were stained as described (Derup et al., 2020) using LSR II hardware and analyzed by FACS Diva (BD Bioscience) or Flow Jo software (Flow Jo, LLC). Anti-mouse (clone 10F.9G2) and human (clone 29E.2A3) PD-L1 [both PE/Cy7, Cat #124314 (mouse) 329718 (human)] were matched with isotype control. Apoptosis assessment used Annexin V and propidium iodide (Thermo Scientific) per manufacturer instruction.
(§1) Western blotting and immunoprecipitation: To prepare whole cell lysates, cells were harvested and lysed in RIPA (radioimmunoprecipitation assay) buffer plus 1 mM phenylmethylsulphonyl fluoride and Halt protease/phosphatase inhibitor cocktail (Thermo Scientific) at 4° C. Protein concentrations were measured by BCA Protein Assay Kit (Thermo Scientific). Protein was run on precast 4-15% sodium dodecyl sulfate polyacrylamide gels (Bio-Rad), transferred to polyvinylidene fluoride membranes (GE Water and Process Technologies), and then blocked in 5% non-fat milk for 1 hour at room temperature. The membranes were then incubated with 1:1000 diluted primary antibodies against indicated proteins (Cell Signaling). Specific antibody binding was detected by chemiluminescence using Western Lightening Plus regent (Perkin Elmer). Cells for (co) immunoprecipitation experiments were seeded in 15-cm dishes and cultured as described, using 6 million cells per immunoprecipitation reaction. For protein ubiquitination, cells were lysed in denaturing buffer (50 mM Tris-HCl, 0.5 mM EDTA and 1% SDS) followed by heating at 95° C. for 10 minutes and then quenched with 9 volumes of quenching buffer (0.5% Triton X-100, 20 mM Tris-HCl (pH 8.0), 137 mM NaCl, 10% glycerol, 2 mM EDTA). Protease inhibitor cocktail (Roche) was added fresh to all buffers. Cell lysates were incubated on a rotator for 30 minutes at 4° C., and then centrifuged at 20,000 g for 15 minutes at 4° C. Supernatants were subsequently incubated with anti-PD-L1 antibody overnight and processed using Dynabeads Protein G for Immunoprecipitation (Thermo Fisher Scientific). The final eluate was processed and Western blotting was performed.

[2] = test system: CTRL and PD-L1^KO RT4 cells; experiment: Viability of RT4 cells treated with Chk1 inhibitor plus atezolizumab; assay type: cell-based, human; conditions: in vitro, absence of immune cells
Description: FIGS. 27A-H: Anti-PD-L1 antibodies mimic genetic PD-L1 depletion to impair tumor cell-intrinsic DDR signals and promote sensitivity to Chk1 inhibition in vitro and in vivo. Cell viability of FIG. 27A, CTRL and FIG. 27B, PD-L1^KORT4 cells treated with LY2603618 (Chk1 inhibitor) as shown plus IgG1 isotype or atezolizumab (atezo, 3 μg/ml) for 72 hours in vitro. Mean+SEM, n=6 replicates, ***, P<0.001, unpaired t-test. FIG. 27C, Immunoblot (IB) analysis of ATM, Chk2, γH2AX and vinculin (VINC) of RT4 cells treated in vitro with isotype, atezolizumab, Chk1i, or their combination. FIG. 27D, Viability of 4T1 cells as in panel A substituting anti-murine PD-L1 and isotype controls. FIG. 27E, IB of 4T1 as in panel FIG. 27C. FIG. 27F, Tumor curves of NSG mice (n=10 tumors/group) challenged with 4T1 tumor cells and treated with Chk1i±αPD-L1. FIG. 27G, Tumor curves and FIG. 27H, tumor weights in WT […] mice challenged and treated as in panel FIG. 27F. P values, two-way ANOVA.

[3] = test system: ID8agg murine ovarian cancer cells; experiment: In vitro viability (MTT) of CTRL versus PD-L1^KO ID8agg cells; assay type: cell-based, mouse; conditions: monotherapy
Description: (§2) Cells (1×10^3) were plated in 96 well plastic culture plates in respective medium and treated for 5 days with DDRi or 3 days with gemcitabine at indicated concentrations. Drug concentrations were carefully optimized in preliminary work not shown. Cell viability was by MTT (3-(4,5-dimethylthiazol-2-yl)-2,5-diphenyl tetrazolium bromide) at 5 mg/ml. Absorbance was measured at 540 nm. Results are presented as a mean+/−SEM of ≥6 replicates. Total cells and viability were confirmed using a Vi-Cell-XR (Beckman Coulter).

[4] = test system: 4T1 murine breast cancer cells; experiment: In vitro viability (MTT) of CTRL versus PD-L1^lo 4T1 cells; assay type: cell-based, mouse
Description: as §2

mTORC1 = experiment: Western blots for mTORC1 pathway and LC3 autophagy; assay type: cell-based
Description: FIGS. 40A-C: CAMB suppresses mTORC1 signals and reduces TIC numbers. FIG. 40A, Western blots for proteins in the mTORC1 pathway. Cells were treated with chlorambucil as indicated concentration for 48 hours. FIG. 40B, Western blot for LC3I/II to assess autophagy in cell lysates treated±chlorambucil at indicated concentrations. FIG. 40C, Percent of ALDH^hi TIC by flow cytometry of ES2 cells cultured±chlorambucil. Percent CD44^+CD24^+ ID8agg TIC and CD44^+CD133^+CD24^+ B16 TIC detected by flow cytometry.
as §1

[5] = test system: UV induced TpN^61R derived CD274^+/+ or CD274^−/− melanoma cells; experiment: Viability of de novo Nras CD274^+/+ versus CD274^−/− melanoma cells; assay type: cell-based, mouse; conditions: in vitro
Text: FIGS. 26A-H: De novo PD-L1^KO tumors phenocopy important aspects of genetic PD-L1 depletion in established tumors. FIG. 26A, Melanoma-free survival of melanocyte specific CD274^fl,fl TpN^61R (KO) versus littermate (WT) autochthonous mice under conditions shown. FIG. 26B, Validation of PD-L1 expression by immunoblot (IB) of melanoma cells derived from UV induced (4.5 Kj/m^2) WT (CD274^+/+) or melanocyte specific CD274^KO (CD274^−/−) mice±in vitro interferon (IFN)-γ treatment. Viability curves of CD274^+/+ versus CD274^−/− cells treated with the selective Chk1 inhibitors FIG. 26C, prexasertib […] or FIG. 26D, rabusertib (LY2603618) in vitro at indicated concentrations. FIG. 26E, IB analysis of PD-L1, ATM, Chk2, and γH2AX of vehicle or rabusertib-treated CD274^+/+ and CD274^−/− cell lines. FIGS. 26F-H, Tumor growth curves in WT C57BL/6J mice (n=10 tumors/group) challenged with UV induced TpN^61R derived CD274^+/+ or CD274^−/− melanoma cells and treated with rabusertib (Chk1i, LY2603618) on the indicated treatment schedule. P values, two-way ANOVA.

PD-L1 in OVCAR5 cells = experiment: PD-L1 mRNA, protein and ubiquitination in OVCAR5 cells; assay type: cell-based, human; conditions: OVCAR5 cells
Description: FIGS. 39A-C: CAMB reduces PD-L1 through ubiquitination. FIG. 39A, RT-qPCR for PD-L1 mRNA in OVCAR5 and ID8agg cells treated with (+) or without (−) chlorambucil for 48 hours. (n=4). FIG. 39B, Western blot for PD-L1 protein in OVCAR5 cells with (+) or without (−) MG132 for 6 or 20 hours. (upper panel). PD-L1 expression in OVCAR5 cells treated with chlorambucil 48 hours and/or MG132 for 6 hours (lower panel). FIG. 39C, Ubiquitinated PD-L1 was immunoprecipitated (IP) and subjected to Western blot analysis with anti-ubiquitin (Ub) antibody. Cells were treated with chlorambucil for indicated times prior to ubiquitination analysis.
as §1
Quantitative Real-Time Reverse Transcriptase Polymerase Chain Reaction: Total RNA was isolated from homogenized whole lung tissue with Trizol reagent (Invitrogen) according to manufacturer instructions. […] Quantitative PCR (qPCR) was conducted using the Bio-Rad Real-Time PCR System (Applied Biosystems), amplified with transcript-specific primers with SYBR Green (Thermo Scientific), according to manufacturer instructions. […]

[6] = test system: RT4 human bladder cancer cells; experiment: In vitro viability (MTT) of CTRL versus PD-L1^KO RT4 cells; assay type: cell-based; conditions: monotherapy
Description: as §2

## CO/N=C(\C(=O)N[C@@H]1C(=O)N2C(C(=O)[O-])=C(C[N+]3(C)CCCC3)CS[C@H]12)c1csc(N)n1 [cefepime]
RT4 cells; FIG. 46B, cells not given
  effect on rabusertib efficacy: improves rabusertib efficacy
RT4 cells
  synthetic lethality with Chk1i: elicited Chk1 inhibitor synthetic lethality in a PD-L1-dependent manner
[1]; FIGS. 44A-B, cells not given
  Chk2: depleted
  DNA damage, as measured via gH2AX: increased DNA damage
  PD-L1: depleted
[1]; RT4 cells, 75 μM, 24-96 hours
  Chk2 in vitro: deplete Chk2
[1]; RT4 cells, 80 μM
  PD-L1 expression in vitro: deplete PD-L1 expression
PD-L1
  expression of PD-L1 in cancer cells: decreased expression of PD-L1

## CO/N=C(\C(=O)N[C@@H]1C(=O)N2C(C(=O)O)=C(CSc3nc(=O)c(=O)[nH]n3C)CS[C@H]12)c1csc(N)n1 [Ceftriaxone]
RT4 cells
  synthetic lethality with Chk1i: not as effective

## atezolizumab
[2]
  viability of RT4 cells, single agent: slightly reduced viability

## Cc1nnc(SCC2=C(C(=O)O)N3C(=O)[C@@H](NC(=O)Cn4cnnn4)[C@H]3SC2)s1 [cefazolin]
RT4 cells
  synthetic lethality with Chk1i: not as effective

## C[C@@H]1COCCN1c1cc(C2([S@](C)(=N)=O)CC2)nc(-c2cc[nH]c3nccc2-3)n1 [AZD6738]
[3]; listed as ATRi
  sensitivity of PD-L1^KO versus control ID8agg cells to the agent: enhanced sensitivity
[4]
  sensitivity of PD-L1^lo versus control 4T1 cells to the agent: enhanced sensitivity

## Nc1nc2c(ncn2CCOCP(=O)(O)O)c(=O)[nH]1 [PMEG, 9-(2-phosphonylmethoxyethyl) guanine]
PD-L1; over 2-3 days, human and mouse tumor lines
  effect on cell viability: little effect on cell viability
PD-L1
  expression of PD-L1 in cancer cells: decreased expression of PD-L1
mTORC1
  autophagy: promote autophagy
  mTORC1 signals: suppress mTORC1 signals

## CC1(C)S[C@@H]2[C@H](NC(=O)Cc3ccccc3)C(=O)N2[C@H]1C(=O)O [Penicillin G]
RT4 cells
  synthetic lethality with Chk1i: not induce synthetic lethality

## COc1cccc(OCCCN)c1-c1cc(Nc2cnc(C#N)cn2)n[nH]1 [prexasertib]
[5]
  synthetic lethality in induced PD-L1^KO tumors: exhibited synthetic lethality

## C[C@@H](O)[C@H]1C(=O)N2C(C(=O)O)=C(S[C@@H]3CN[C@H](C(=O)N(C)C)C3)[C@H](C)[C@H]12 [meropenem]
RT4 cells
  synthetic lethality with Chk1i: not induce synthetic lethality

## CC(C)C[C@@H](C=O)NC(=O)[C@H](CC(C)C)NC(=O)[C@H](CC(C)C)NC(=O)OCc1ccccc1 [MG132] (Cbz-Leu-Leu-Leu-aldehyde)
PD-L1 in OVCAR5 cells
  effect on CAMB-mediated PD-L1 reduction: abolished CAMB-mediated PD-L1 reduction
PD-L1 in OVCAR5 cells; by 6 hours after treatment
  PD-L1 expression: increased PD-L1 expression

## CN(C)CCCOc1ccc(-c2ccc3ncc4c(c3c2)n(C2CCOCC2)c(=O)n4C)cn1 [AZD0156]
[6]
  sensitivity of PD-L1^KO versus control RT4 cells to the agent: Minimal effects
[3]
  sensitivity of PD-L1^KO versus control ID8agg cells to the agent: Minimal effects

From patent US12404332B2, “Methods for diagnosing and treating cancers” (Research Development Foundation, priority 2020, dated 2025)
